# Assay results as given in patent publication EP4438597A1, “2-STYRYLBENZOTHIAZOLE DERIVATIVES AS A-SYNUCLEIN BINDING COMPOUNDS” (Eberhard Karls Universität Tübingen Medizinische Fakultät, priority 2023, dated 2024).
# How the values were obtained:
# αSYN pathology = target: T1, αSYN pathology (Homo sapiens, UniProt P37840); experiment: in vitro autoradiography on human brain slices with αSYN pathology (MSA, PD); assay type: binding; settings: 10 nM tracer, NSB with 10 µM non-radioactive compound
# T1 construct: tissue Neurobiobank München (NBM, Munich, Germany); host or cells: post-mortem human brain slices (MSA cerebellum, PD frontal cortex, controls)
# Description: Post-mortem human brain slices (10 µm thickness) were obtained from and the subject cases were analyzed by the Neurobiobank München (NBM, Munich, Germany), where tissues were collected on the basis of written informed consent according to the guidelines of the ethics committee of the Ludwig-Maximilians-University Munich, Germany (# 345-13). The use of brain tissue samples in this study was approved by the ethics committee of the Faculty of Medicine at the University of Tuebingen (Ethics approval number: 813/2018BO2). Table 1 summarizes the information of the subjects from which samples were obtained and used in the experiment.
# For autoradiography, brain slices were thawed for one hour before preincubation in BSA buffer for 25 minutes at room temperature. To determine total binding (TB), brain slices were incubated with the tracer (10 nM [^18F]PFSB, 10 nM [^18F]MFSB). […]
# Quantitative data analysis was performed by drawing four regions of interest (ROIs) in relevant areas of the slice and one ROI next to it for background subtraction (imaged 1.8.0_172, National Institute of Health, Bethesda, Maryland, USA) (Schneider, C. A. et al., NIH Image to imaged: 25 years of image analysis; Nat Methods 2012, 9 (7), 671-5). […] The SB disease/SB control ratio was calculated by dividing by the SB in diseased tissues with the respective SB in control tissues.
# [1] = in vivo dynamic PET/MR imaging, pharmacokinetic profile; settings: healthy wild-type mice, i.v.
# Description: The animal experiments were performed in compliance to the European directives on the protection and use of laboratory animals (Council Directive 2010/63/UE) and the German animal welfare act with approval from the local authorities (Regierungspräsidium Tuebingen, R3/19G). Three healthy wild-type female C57BU6J mice (20.3 ± 0.9 g; 9 weeks old) purchased from Charles River Laboratories (Sulzbach, Germany) were maintained in a vivarium on a 12:12 hour light dark cycle and were kept at a temperature of 22°C with 40-60% humidity and free access to a standard diet and tap water.
# The mice (n = 3) were anaesthetized with 1.5% isoflurane evaporated in 100% oxygen at a flow rate of 0.8 L/min. Body temperature of 37°C was maintained using a feedback temperature control unit. PET imaging studies were performed on Inveon dedicated microPET system (Inveon D-PET, Siemens, Knoxville, TN, USA). Five seconds after the start of PET acquisition, mice were injected intravenously with 9.9 ± 0.6 MBq of [^18F]MFSB (Am = 46.2 ± 2.5 GBq/µmol at time of injection). The one-hour dynamic acquisitions were divided into 39 time frames (12×5 s, 6×10 s, 6×30 s, 5×60 s and 10×300 s). A 13-minute transmission measurement with a cobalt-57 point source was performed for attenuation correction. Subsequently, an anatomical magnetic resonance (MR) scan with a 7 Tesla MR scanner (ClinScan, Bruker BioSpin MRI GmbH, Ettlingen, Germany) using a rat whole-body volume coil and the Paravision software (v6.0.1, Bruker, Ettlingen, Germany) using a T2-weighted Turbo-RARE MRI sequence.
# The PET image was reconstructed via the OSEM3D/SP-MAP reconstruction algorithm and coregistered to the whole-body MRI scan. […] Standardized uptake values (SUVs) were calculated as a ratio of the detected activity with injected activity and weight (SUV = (TAC (kBq/cc) / inj. activity (kBq)) * weight (g)).
structure (smiles),measurement,setting,value
[18F]c1ccc2nc(/C=C/c3ccc(N4CCOCC4)cc3)sc2c1 [[^18F]MFSB],"SB disease/SB control, MSA1/cerebellum ctrl",αSYN pathology,1.20
same,crossing of the BBB,[1]; dynamic PET/MR over 60 min,crossing of the BBB was successful
same,kidney uptake,[1]; dynamic PET/MR over 60 min,Significant kidney uptake
same,SUV in lungs and liver,[1]; first 2 min,≈ 5
